Data on 23 compounds can be found in publication PMC7897990, “TriTOX: A novel Trichomonas vaginalis assay platform for high-throughput screening of compound libraries” (International Journal for Parasitology: Drugs and Drug …, 2021).

In data set [1] the test system is nontumorigenic neonatal foreskin fibroblast (NFF) cell line.
For data set [2], the system named is Trichomonas vaginalis G3 trophozoites.
[3] abbreviates: NFF fibroblasts, single concentration 5 µg/mL.
[4] abbreviates: HTS replicate 1, parasite screen 1 µg/mL.
Setting [5] is: HTS replicate 2, parasite screen 1 µg/mL.
Where [6] appears, read: NFF_NS1 screen 5 µg/mL, single concentration.
[7] abbreviates: HTS single concentration, parasite screen 1 µg/mL, replicate 1.
[8] abbreviates: HTS single concentration, parasite screen 1 µg/mL, replicate 2.
[9] abbreviates: NFF_NS1 screen at 5 µg/mL, NFF cells.
Where [10] appears, read: parasite screen at 1 µg/mL, replicate 1.
[11] abbreviates: parasite screen at 1 µg/mL, replicate 2.
The mark [12] stands for this setting: replicate 1, parasite screen at 1 µg/mL.
Where [13] appears, read: replicate 2, parasite screen at 1 µg/mL.
Where [14] appears, read: NFF fibroblast screen at 5 µg/mL, A = active, I = inactive.
[15] abbreviates: HTS, parasite screen at 1 µg/mL, replicate 1.
Where [16] appears, read: HTS, parasite screen at 1 µg/mL, replicate 2.

Like-named read-outs stand apart in the source and are kept apart here. Non-standard residues stand in square brackets, D forms with d. Residues, ends and D or L forms follow the SMILES beside them. GABA = NCCCC(=O)O

As to `CC(C)=CCC[C@H](C)[C@@]1(O)CC[C@]2(C)C[C@H]3[C@H](C(=O)C[C@@]3(C)O)/C(C=O)=C\C[C@H]21` [Ophiobolin B], the NFF_Activity entry in data set [1] (setting [3]) is given as “A (active (A) compounds having >25% inhibitory activity)”. Further, the T.vaginalis_%inb_Rep1 in data set [2] (setting [4]) turned out to be 11.82%. In addition, in data set [2] (setting [5]), the T.vaginalis_%inb_Rep2 was 13.09%.
Turning to `CO[C@H]1/C=C\C=C(/C)C(=O)NC2=CC(=O)C(NCCN(C)C)=C(C[C@@H](C)C[C@H](OC)[C@H](O)[C@@H](C)/C=C(\C)[C@@H]1OC(N)=O)C2=O` [BIA-A1924], the NFF_Activity result in data set [1] (setting [6]) was “A (active (A) compounds having >25% inhibitory activity)”. Further, the T.vaginalis_%inb_Rep1 in data set [2] (setting [7]) came out at 5.66%. For the same compound, the T.vaginalis_%inb_Rep2 in data set [2] (setting [8]) is 62.10%.
For `CN(C)[C@@H]1C(=O)C(C(N)=O)=C(O)[C@@]2(O)C(=O)C3=C(O)c4c(O)cccc4C[C@H]3C[C@@H]12.Cl` [BIA-S1534], in data set [1] (setting [9]), the NFF_Activity entry was “I (otherwise these were reported as inactive (I))”. The compound also displayed a T.vaginalis_%inb_Rep1 in data set [2] (setting [10]) of 5.02%. The compound further showed a T.vaginalis_%inb_Rep2 in data set [2] (setting [11]) of 3.66%.
For `COC(=O)c1cc(O)cc(OC)c1C(=O)c1c(O)cc(C)cc1O` [BIA-S1089], the NFF_Activity entry in data set [1] (setting [9]) was “A (active (A) compounds having >25% inhibitory activity)”. Moreover, in data set [2] (setting [10]), the T.vaginalis_%inb_Rep1 stood at 9.49%. In data set [2] (setting [11]), this compound had a T.vaginalis_%inb_Rep2 of 14.81%.
The matching figures for `CC(=O)Nc1c2sscc-2n(C)c1=O` [BIA-T1138]: “A (active (A) compounds having >25% inhibitory activity)”, 100.00% and 97.56%.
The like results for `C=CC(C)(C)[C@@]12C[C@H]3C(=O)N/C(=C/c4c[nH]cn4)C(=O)N3[C@@H]1Nc1ccccc12` [BIA-R1083] were, in that order, “A (active (A) compounds having >25% inhibitory activity)”, 13.69% and 4.87%.
As to `Cc1c2ccocc-2oc1=O` [BIA-K1791], the NFF_Activity entry in data set [1] (NFF cells, screen at 5 µg/mL) was “I (otherwise these were reported as inactive (I))”. This compound also yielded a T.vaginalis_%inb_Rep1 in data set [2] (setting [12]) of 12.47%. In data set [2] (setting [13]), the T.vaginalis_%inb_Rep2 amounted to 13.47%.
On to `C=C1C(=O)OC2C(=O)OC(CCCCCCCC)C12` (stereo not drawn) [BIA-A1409], for which the NFF_Activity entry in data set [1] (setting [6]) is given as “A (active (A) compounds having >25% inhibitory activity)”. The same compound had a T.vaginalis_%inb_Rep1 in data set [2] (setting [7]) of 15.19%. The compound also registered a T.vaginalis_%inb_Rep2 in data set [2] (setting [8]) of 12.94%.
In the case of `C=CC(C)(C)C12CC3C(=O)N4C(CC5(C(C)(C)C=C)c6ccccc6NC45)C(=O)N3C1Nc1ccccc12` (stereo not drawn) [BIA-A1631], the NFF_Activity entry in data set [1] (setting [6]) was “I (otherwise these were reported as inactive (I))”. The same compound registered a T.vaginalis_%inb_Rep1 in data set [2] (setting [7]) of 14.16%. Moreover, the T.vaginalis_%inb_Rep2 in data set [2] (setting [8]) worked out at 13.96%.
Regarding `CN[C@@H]1C[C@H]2O[C@@](C)([C@@H]1OC)n1c3ccccc3c3c4c(c5c6ccccc6n2c5c31)C(=O)NC4=O` [BIA-O1137], in data set [1] (setting [6]), the NFF_Activity entry is reported as “A (active (A) compounds having >25% inhibitory activity)”. Further, the T.vaginalis_%inb_Rep1 in data set [2] (setting [7]) came to 63.59%. In addition, in data set [2] (setting [8]), the T.vaginalis_%inb_Rep2 came to 75.50%.
In the case of `Cc1cc(O)c2c(c1)C(=O)c1c(c(O)cc(O)c1-c1c(O)cc(O)c3c1C(=O)c1cc(C)cc(O)c1C3=O)C2=O` [BIA-S1662], in data set [1] (setting [9]), the NFF_Activity result is “I (otherwise these were reported as inactive (I))”. Further, the T.vaginalis_%inb_Rep1 in data set [2] (setting [10]) amounted to 9.89%. Besides, in data set [2] (setting [11]), the T.vaginalis_%inb_Rep2 was determined as 5.90%.
For `O=C(O)c1nccc2c1[nH]c1ccccc12` [BIA-F1943], in data set [1] (setting [6]), the NFF_Activity result is “I (otherwise these were reported as inactive (I))”. The T.vaginalis_%inb_Rep1 in data set [2] (setting [7]) is recorded as 8.34%. In data set [2] (setting [8]), this compound registered a T.vaginalis_%inb_Rep2 of 10.54%.
For `C[C@@H]1CCC[C@@H](O)CCC/C=C/c2cc(O)cc(O)c2C(=O)O1` [Zearalenol, alpha-], the NFF_Activity entry in data set [1] (setting [14]) was “I (otherwise these were reported as inactive (I))”. The T.vaginalis_%inb_Rep1 in data set [2] (setting [15]) stood at 11.90%. The compound also showed a T.vaginalis_%inb_Rep2 in data set [2] (setting [16]) of 12.68%.
In the case of `CC(=O)OC[C@]12[C@H](O)C(=O)C(C)=C[C@H]1O[C@@H]1[C@H](O)C[C@@]2(C)[C@]12CO2` [BIA-A1922], the NFF_Activity entry in data set [1] (setting [6]) was “I (otherwise these were reported as inactive (I))”. Further, the T.vaginalis_%inb_Rep1 in data set [2] (setting [7]) is on record as 7.13%. Moreover, the T.vaginalis_%inb_Rep2 in data set [2] (setting [8]) came out at 15.54%.
Turning to `CCC1OC(=O)CC(O)C(C)C(OC2OC(C)C(O)C(N(C)C)C2O)C(CCN2CC(C)CC(C)C2)CC(C)C(=O)C=CC(C)=CC1COC1OC(C)C(O)C(OC)C1OC.O=P(O)(O)O` (stereo not drawn) [Tilmicosin phosphate], the NFF_Activity entry in data set [1] (setting [14]) was “I (otherwise these were reported as inactive (I))”. Further, the T.vaginalis_%inb_Rep1 in data set [2] (setting [15]) is recorded as 8.60%. The compound also came in with a T.vaginalis_%inb_Rep2 in data set [2] (setting [16]) of 12.37%.
As to `CC[C@H](C)[C@H]1O[C@]2(CC[C@@H]1C)C[C@@H]1C[C@@H](C/C=C(\C)[C@@H](O[C@H]3C[C@H](OC)[C@@H](O)[C@H](C)O3)[C@@H](C)/C=C/C=C3\CO[C@@H]4[C@H](O)C(C)=C[C@@H](C(=O)O1)[C@]34O)O2` [BIA-I1150], the NFF_Activity result in data set [1] (NFF cells, screen at 5 µg/mL) is “I (otherwise these were reported as inactive (I))”. For the same compound, the T.vaginalis_%inb_Rep1 in data set [2] (setting [12]) is 15.62%. The T.vaginalis_%inb_Rep2 in data set [2] (setting [13]) is on record as 12.38%.
In the case of `CC1=C(O)C(=O)[C@@H]2O[C@@H]2C1=O` [BIA-T1695], the NFF_Activity result in data set [1] (setting [9]) was “A (active (A) compounds having >25% inhibitory activity)”. Moreover, the T.vaginalis_%inb_Rep1 in data set [2] (setting [10]) worked out at 9.91%. Also, the T.vaginalis_%inb_Rep2 in data set [2] (setting [11]) came to 12.25%.
As for `CCCCCCCC(=O)N[C@H]1CCOC1=O` [Octanoyl-L-homoserine lactone], the NFF_Activity result in data set [1] (setting [3]) is “I (otherwise these were reported as inactive (I))”. The compound further showed a T.vaginalis_%inb_Rep1 in data set [2] (setting [4]) of 16.84%. For the same compound, the T.vaginalis_%inb_Rep2 in data set [2] (setting [5]) came out at 14.05%.
Consider `C=C(C)C1CCC2(C)CCC3(C)C(CCC4C5(C)CCC(O)C(C)(C)C5CCC43C)C12` (stereo not drawn) [BIA-L1759], for which, in data set [1] (NFF cells, screen at 5 µg/mL), the NFF_Activity result is “I (otherwise these were reported as inactive (I))”. In data set [2] (setting [12]), this compound returned a T.vaginalis_%inb_Rep1 of 12.73%. Moreover, in data set [2] (setting [13]), the T.vaginalis_%inb_Rep2 is 12.70%.
Consider `CC1C=CC=CC=CC=CC=CC=CC=CC(OC2OC(C)C(O)C(N)C2O)CC2OC(O)(CC(O)CC(O)C(O)CCC(O)CC(O)CC(=O)OC(C)C(C)C1O)CC(O)C2C(=O)O` (stereo not drawn) [BIA-A1441], for which, in data set [1] (setting [6]), the NFF_Activity entry is “I (otherwise these were reported as inactive (I))”. Besides, the T.vaginalis_%inb_Rep1 in data set [2] (setting [7]) is 13.68%. The compound further came in with a T.vaginalis_%inb_Rep2 in data set [2] (setting [8]) of 14.03%.
Take `CC(C)[C@H]1NC(=O)[C@H](Cc2ccccc2)NC(=O)[C@@H](C(C)C)NC(=O)[C@@H](C)NC(=O)CCCNC(=O)[C@@H](Cc2c[nH]c3ccccc23)NC(=O)[C@@H](C)NC1=O` [Unguisin A] (cyclo(F[dV][dA][dW][GABA][dA][dV])): the NFF_Activity result in data set [1] (setting [14]) was “I (otherwise these were reported as inactive (I))”. The compound further displayed a T.vaginalis_%inb_Rep1 in data set [2] (setting [15]) of 9.07%. In data set [2] (setting [16]), this compound gave a T.vaginalis_%inb_Rep2 of 14.50%.
On to `CC[C@H]1C[C@@H]2CC[C@@H](O2)[C@@H](C)C(=O)O[C@H](CC)C[C@H]2CC[C@H](O2)[C@H](C)C(=O)O[C@@H](CC)C[C@@H]2CC[C@@H](O2)[C@@H](C)C(=O)O[C@H](CC)C[C@H]2CC[C@H](O2)[C@H](C)C(=O)O1` [BIA-T1287], for which, in data set [1] (setting [9]), the NFF_Activity entry was “I (otherwise these were reported as inactive (I))”. The compound also came in with a T.vaginalis_%inb_Rep1 in data set [2] (setting [10]) of 8.97%. Also, the T.vaginalis_%inb_Rep2 in data set [2] (setting [11]) came out at 15.05%.
Turning to `COc1c(-c2ccccc2)c2ccccc2[nH]c1=O` [BIA-M1149], the NFF_Activity result in data set [1] (NFF cells, screen at 5 µg/mL) is “I (otherwise these were reported as inactive (I))”. Moreover, in data set [2] (setting [12]), the T.vaginalis_%inb_Rep1 was 20.69%. The T.vaginalis_%inb_Rep2 in data set [2] (setting [13]) is recorded as 13.28%.
